This test relates to rats. The experiment in a line: Forced Swimm Stress model, immobilization period. It counts as in vivo. The settings on record: 30 mg/kg perorally, once a day for nine days. As to the method:
The stress-reducing effects of lavender oil was tested in rats by the so-called “Forced Swimm Stress” model (R. D. Porsolt et al. (1978), Eur. J. Pharmacol. 47, 379-391). The stress reaction experimentally elicited by this test in rats is a recognized method for testing stress-induced behaviour. The principle of the test system used involves that rats being put into a water-filled glass cylinder which they can not leave independently, fall into a still state after a short period of swimming (immobilization period). This immobility is interpreted as a reaction to recognizing the hopelessness of the situation (cf. Example 2).
In order to test the stress-reducing effects of lavender oil, rats were treated over a period of nine days in total with differently high dosages of lavender oil according to European Pharmacopoeia, edition 4 (WS® 1265) once a day. For comparison purposes some animals were treated either with the tricyclic antidepressive agent imipramine used in stress therapy or with a control solution without an active ingredient. On the seventh day of the treatment, the animals were placed into the water-filled glass cylinder for 15 minutes for familiarization purposes. At the final day of the treatment, the animals were placed into the graduated cylinder again for a period of 5 minutes and the period of immobility was measured as a measure of the stress reaction.

Consider one compound from patent US20080124410A1, “Use Of Lavender Oil For The Prophylaxis And Treatment Of Neurasthenia, Somatization Disorders And Other Stress-Associated Diseases” (priority 2004, published 2008).

The term inhibition denotes how much of the control response was suppressed. `CN(C)CCCN1c2ccccc2CCc2ccccc21` [imipramine] showed an immobilization period of 48 ± 6 s. The inhibition (versus control) amounted to 67%.
